Assay results published in paper PMC11172478, “1,3,5-Triazine as Branching Connector for the Construction of Novel Antimicrobial Peptide Dendrimers: Synthesis and Biological Characterization” (International Journal of Molecular Sciences, 2024).
Residues, ends and D or L forms follow the SMILES beside them. *: point of attachment. βNA = c1ccc2cc(N*)ccc2c1

Columns and labels:
E. coli 208691 = experiment: Intracellular accumulation of acridine orange; format: cell-based; details: AO 0.25 µg/mL, 30 min
Method: (§1) The assay was performed as previously described by Armengol et al. including control and clinical strains (E. coli 208691 and P. aeruginosa 666 SJD) previously studied by our group. Briefly, 96-well flat-bottomed microtiter plates (Guangzhou Jet Bio-Filtration Co., Ltd., Mianyang, China) were used. Overnight cultures were diluted in 1/4 Ringer’s solution to an OD520nm of 1.5, and 100 µL was added to the wells previously filled with 100 µL of Ringer’s solution. Acridine Orange (AO) was added to a final concentration of 0.25 µg/mL. The inoculated plates were then incubated for 30 min with shaking, after which the fluorescence was measured in a FLUOstar OPTIMA fluorescence microplate reader (BMG Labtech, Ortenberg, Germany).
(§2) To determine the uptake and accumulation of AO by bacteria, different scenarios were compared. First, bacteria were examined in the presence of PAβN at 20 µg/mL, and then in the presence of different concentrations of the dendrimers at (MIC, ½ MIC, ¼ MIC). The results in each condition were expressed as the percentage increase in fluorescence with respect to the control.

P. aeruginosa 666 SJD = experiment: Intracellular accumulation of acridine orange; format: cell-based; details: PaβN 20 µg/mL, AO 0.25 µg/mL, 30 min, fluorescence
Method: as §1, §2

P. aeruginosa ATCC 27853 [1] = experiment: Intracellular accumulation of acridine orange; format: cell-based
Method: as §1, §2

E. coli ATCC 25922 [2] = format: cell-based; details: broth microdilution, MHBCA, 24 h, 37 °C, visual turbidity
Method: (§3) The antimicrobial activity of the dendrimers was evaluated against E. coli ATCC 25922, P. aeruginosa ATCC 27853 and S. aureus ATCC 29213 strains. The MIC values were determined by the broth microdilution method. Briefly, the different strains were grown in Muller Hinton broth cation adjusted (MHBCA) medium overnight at 37 °C with shaking at 200 rpm. The bacterial cultures were then adjusted to OD625nm of 0.08–0.1, and 5 μL of each diluted suspension was added to 96-well plates previously filled with MHBCA and serially diluted peptides. Plates were incubated for 24 h at 37 °C. Finally, the MIC was determined macroscopically, based on the visual turbidity of the wells.

P. aeruginosa ATCC 27853 [3] = format: cell-based; details: broth microdilution, MHBCA, 24 h, 37 °C, visual turbidity
Method: as §3

S. aureus ATCC 29213 = format: cell-based; details: broth microdilution, MHBCA, 24 h, 37 °C, visual turbidity
Method: as §3

E. coli ATCC 25922 [4] = format: cell-based
Method: (§4) The real-time effect of the peptide dendrimers was examined on the growth curves of E. coli ATCC 25922 and P. aeruginosa ATCC 27853. Volumes of 10 mL of TSB liquid cultures containing 1–5 × 10^5 CFU/mL in the logarithmic phase were adjusted in Falcon tubes. Peptide dendrimers were then added at MIC and sub-inhibitory concentrations (½ MIC and ¼ MIC). Incubation was performed in RTS-1C real-time reverse spin bioreactors RTS-1 (Biosan) for 24 h at 37 °C and 2000 rpm. Growth was measured noninvasively as optical density (OD 850 nm) every 15 min.

P. aeruginosa ATCC 27853 [5] = experiment: Bacterial growth curves; format: cell-based; details: P. aeruginosa ATCC 27853, TSB, MIC, ½ MIC and ¼ MIC, 24 h, 37 °C, OD 850 nm
Method: as §4

P. aeruginosa ATCC 27853 [6] = experiment: Time-kill curves; format: cell-based; details: P. aeruginosa ATCC 27853, ½ MIC
Method: The death kinetics of the active dendrimers were examined by plotting their time-kill curves against E. coli ATCC 25922 and P. aeruginosa ATCC 27853. The dendrimers were added to a starting bacterial inoculum of 10^6 CFU/mL in 5 mL of MHBCA medium. Dendrimers were tested at three different concentrations: MIC, ½ MIC and ¼ MIC. They were incubated for 24 h at 37 °C with shaking at 200 rpm. Samples were aseptically collected at 0, 1, 2, 4 and 6 h, serially diluted in Ringer ¼ and plated on Tryptone soy agar for colony counting.
The response of the microbial strains to the dendrimers was determined based on a logarithmic decrease in viable bacteria. A compound was considered active if it caused a reduction of ≥1 log10 CFU/mL, compared to the corresponding counts at time 0 h. In addition, a dendrimer was considered bactericidal if it caused a reduction of ≥3 log10 CFU/mL [40].

E. coli ATCC 25922 [7] = experiment: Atomic force microscopy of treated bacteria; format: cell-based; details: E. coli ATCC 25922, dendrimer at MIC, 4 h, 37 °C
Method: E. coli ATCC 25922 was grown at 37 °C in Mueller Hinton cation-adjusted broth to an optical density of 0.25 at 625 nm. Dendrimers were added to a starting inoculum of 10^6 CFU/mL and incubated for 4 h at 37 °C with shaking. Untreated E. coli was included as a control. Cells in 1 mL of culture were centrifuged at 5000 rpm for 5 min and washed three times with 1 mL of sterile water. The bacterial cells were then resuspended in 100 µL of sterile water and a 10 µL drop was applied to a freshly cleaved mica surface and allowed to dry for approximately 10 min at room temperature.
The disk surfaces were analyzed by atomic force microscopy using an AFM XE-70 (Park Systems, Suwon, Korea) in non-contact mode with an ACTA 10M cantilever. […] The AFM images were processed using a scanning probe image processor XEI (Park Systems), correcting the plane of the AFM image for any coupling of the lateral plane and the z-axis caused by the instrument.

[8] = Black lipid bilayers conductance; details: DiPhPC/PS 4:1 in n-decane, 1 M KCl, −80, −120 and −180 mV
Method: The basic methods have been described previously. Membranes were prepared from 1% lipid a mixture of di-phytanoyl-phosphatidylcholine/di-phytanoylphosphatidylserine (DiPhPC/PS) in a molar ratio of 4:1 in n-decane (Avanti Polar Lipids, Delfzyl, The Netherlands). Bilayers were painted over a 2 mm^2 hole in a Teflon divider separating two compartments containing 5 mL each of a bathing solution of 1MKCl. Voltages were applied across the membrane via calomel electrodes connected by a salt bridge. The resultant current was amplified 10^8-fold by a current amplifier and recorded on a Rikadenski chart recorder. A concentration of 1 μg/mL of the dendrimer was used based on the results of Wu et al..

Row | Compound | AO accumulation (untreated control = 100%) (E. coli 208691; E. coli 208691, PaβN 20 µg/mL, fluorescence) | AO accumulation (untreated control = 100%) (P. aeruginosa 666 SJD) | changes in AO accumulation by susceptible strains (in words) (P. aeruginosa ATCC 27853 [1]; susceptible strains, PaβN 20 µg/mL) | MIC E. coli ATCC 25922 (E. coli ATCC 25922 [2]) | MIC P. aeruginosa ATCC 27853 (P. aeruginosa ATCC 27853 [3]) | MIC S. aureus ATCC 29213 (S. aureus ATCC 29213) | effect on growth curve (in words) (E. coli ATCC 25922 [4]; E. coli ATCC 25922, TSB, MIC, ½ MIC and ¼ MIC, 24 h, 37 °C, OD 850 nm) | delay in the onset of detectable turbidity (E. coli ATCC 25922 [4]; E. coli ATCC 25922, at concentrations lower than ½ MIC) | prolongation of lag phase (E. coli ATCC 25922 [4]; E. coli ATCC 25922, at ¼ MIC) | concentration that completely inhibited detectable growth (E. coli ATCC 25922 [4]; E. coli ATCC 25922, growth curves, 24 h) | effect on growth curve (in words) (P. aeruginosa ATCC 27853 [5]) | time-kill activity at ½ MIC (in words) (P. aeruginosa ATCC 27853 [6]) | bacterial surface alteration by AFM (in words) (E. coli ATCC 25922 [7]) | channel formation in planar lipid bilayers (conductance) [8] | AO accumulation (in words) (E. coli 208691; E. coli 208691, dendrimers at MIC, ½ MIC, ¼ MIC) | AO accumulation (in words) (P. aeruginosa ATCC 27853 [1]; P. aeruginosa ATCC 27853, dendrimers at MIC)
1 | NC(N)=NCCC[C@H](NC(=O)[C@@H](N)Cc1ccccc1)C(=O)Nc1ccc2ccccc2c1 [PaβN, reference compound] (H-Phe-Arg-βNA) | ≥ 140% | ≥ 140% | almost negligible | – | – | – | – | – | – | – | – | – | – | – | – | –
2 | H-[(LK)3-EDA]4-(TA-EDA)2-TA-(LK)3-NH2 [Dendrimer 3] | – | – | – | 8 µg/mL | 32 µg/mL | >64 µg/mL | inhibited the growth at the MIC and ½ MIC | 10 h | 6 h | 4 µg/mL | complete growth inhibition occurred at the MIC | higher antimicrobial activity than dendrimer 1 | significant surface damages | did not induce membrane channels | increase in the AO accumulation with clear differences between the MIC, ½ MIC and ¼ MIC | slight increase in AO accumulation
